Assay results taken from patent US6013809A, “Substituted heterocyclic benzocycloalkenes and the use thereof as substances having an analgesic effect” (Gruenenthal GmbH, priority 1997, dated 2000).
Where a name gives a salt, the structure may show the parent alone. Read-outs that look alike come from different tables or passages of the source.

Assays:
δ-opiate receptor = biological target: T1, δ-opiate receptor (Rattus norvegicus, UniProt P33533); experiment: δ-opiate receptor binding, displacement of (^3H)-2-D-Ala-deltorphin II on rat brain homogenates; parameters: species or system rat (male Wistar rats)
T1 construct: freshly prepared rat brain was homogenised in 50 mmoles/l Tris-HCl (pH 7.4); from tissue; host or cells: rat brain without cerebellum, pons and medulla oblongata, male Wistar rats; membrane homogenate
T1 sequence (P33533 whole entry): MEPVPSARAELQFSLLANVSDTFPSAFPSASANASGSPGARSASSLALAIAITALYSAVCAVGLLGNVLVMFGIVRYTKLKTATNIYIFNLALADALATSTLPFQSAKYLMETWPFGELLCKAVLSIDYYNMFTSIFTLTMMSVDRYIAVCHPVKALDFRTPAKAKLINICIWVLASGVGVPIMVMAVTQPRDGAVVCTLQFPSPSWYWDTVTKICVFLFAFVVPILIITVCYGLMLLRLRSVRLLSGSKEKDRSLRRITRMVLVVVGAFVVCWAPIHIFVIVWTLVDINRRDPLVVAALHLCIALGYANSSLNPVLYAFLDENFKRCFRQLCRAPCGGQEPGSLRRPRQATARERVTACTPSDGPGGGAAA
Method: Investigations for determining the affinity of compounds of formula I according to the invention for the δ-opiate receptor, which is a crucial prerequisite for analgesic properties, were performed on […] homogenates (rat brain homogenates, without the cerebellum, pons and medulla oblongata, from male Wistar rats). Selected compounds of formula I were used for the detection of δ-opiate receptor properties.
For this purpose, freshly prepared rat brain was homogenised in 50 mmoles/l Tris-HCl (pH 7.4) whilst cooling in ice, and was centrifuged for 10 minutes at 5000 g. After decanting and discarding the supernatant liquor, and renewed take-up and homogenisation of the membrane sediment in 50 mmoles/l Tris-HCl (pH 7.4), the homogenate was subsequently centrifuged for 20 minutes at 20,000 g and 4° C. This washing step was repeated once more. Thereafter, the supernatant liquor was decanted and the membrane sediment was homogenised in cold 50 mmoles/l Tris-HCl, 20% glycerol (w/v), 0.01% bacitracin (w/v) (pH 7.4) and was frozen in aliquots until testing was performed.
For the receptor binding tests, the aliquots were thawed out and diluted 1:10 with the binding test buffer.
The buffer used in the binding test comprised 50 mmoles/l Tris-HCl, 5 mmoles/l MgCl (pH 7.4), supplemented with 0.1% (w/v) bovine serum albumin. […] (^3 H)-2-D-Ala-deltorphin II was used as the radioactive ligand. The proportion of non-specific binding was determined in the presence of 10 mmoles/l naloxon.
The compounds according to the invention were added to further batches in series of concentrations and the displacement of the radioactive ligand from its specific binding site was determined. The respective triple batches were incubated for 90 minutes at 37° C. and were subsequently harvested by means of filtration through glass fibre filters (GF/B) for the determination of the radioactive ligand bound to the membrane homogenate. The radioactivity of the glass fibre filter discs was measured in a β-counter after adding a scintillator.
The affinity of the compounds according to the invention for the δ-opiate receptor was calculated as the IC50 according to the law of mass action by means of nonlinear regression. The K values in Table 1 are given as the mean value±the standard deviation from three mutually independent tests.

cancer patients = conditions: intrathecal, cancer patients on whom morphine no longer had an analgesic effect; cited from earlier work
[1] = 90 minutes at 37° C., pH 7.4, mean value ± standard deviation from three independent tests, read-out: δ-opiate receptor binding Ki
[2] = meaning of the second figure not stated, read-out: δ-opiate receptor binding Ki, second unlabelled figure printed behind the mean ± standard deviation

CN(C)CC1=C(c2cccc(O)c2)c2ccccc2[S+]([O-])CC1 (racemic) [Example 3, 3-(4-dimethylaminomethyl-1-oxo-2,3-dihydro-1H-1λ^4-benzo[b]thiepin-5-yl)-phenol hydrochloride]
Ki (δ-opiate receptor; [1]): 2.1 ± 0.13 nM

CN(C)CC1=C(c2cccc(O)c2)c2ccccc2SCC1 [Example 1, 3-(4-dimethylaminomethyl-2,3-dihydro-benzo[b]thiepin-5-yl)-phenol hydrochloride]
Ki (δ-opiate receptor; [1]): 10.2 ± 4.5 nM

CN(C)CC1=C(c2cccc(O)c2)c2ccc3ccccc3c2OC1 [Example 2b, 3-(3-dimethylaminomethyl-2H-benzo[b]chromen-4-yl-phenol hydrochloride]
Ki (δ-opiate receptor; [1]): 348 ± 65 nM

CN(C)CC1=C(c2cccc(O)c2)c2ccc3ccccc3c2SC1 [Example 2c, 3-(2-dimethylaminomethyl-3H-4-thiaphenanthren-1-yl)-phenol hydrochloride]
Ki (δ-opiate receptor; [1]): 137 ± 13 nM

CN(C)CC1=C(c2cccc(O)c2)c2ccc3c(c2OC1)OCCO3 [Example 2d, 3-(7-dimethylaminomethyl-2,3-dihydro-6H-1,4,5,-trioxa-phenanthren-8-yl)-phenol hydrochloride]
Ki (δ-opiate receptor; [1]): 18.4 ± 1.6 nM

CN(C)CC1=C(c2cccc(O)c2)c2ccccc2OCC1 [Example 2e, 3-(4-dimethylaminomethyl-2,3-dihydro-benzo[b]oxepin-5-yl)-phenol hydrochloride]
Ki (δ-opiate receptor; [1]): 8.5 ± 3 nM

COc1ccc2c(c1)OCCC(CN(C)C)=C2c1cccc(O)c1 [Example 2g, 3-(4-dimethylaminomethyl-8-methoxy-2,3-dihydrobenzo[b]oxepin-5-yl)-phenol hydrochloride]
Ki (δ-opiate receptor; [1]): 6.19 nM | Ki (δ-opiate receptor; [2]): 6.01 nM

COc1ccc2c(c1)SCCC(CN(C)C)=C2c1cccc(O)c1 [Example 2h, 3-(4-dimethylaminomethyl-8-methoxy-2,3-dihydrobenzo[b]thiepin-5-yl)-phenolhydrochloride]
Ki (δ-opiate receptor; [1]): 2.67 nM | Ki (δ-opiate receptor; [2]): 1.76 nM

CN(C)CC1=C(c2cccc(O)c2)c2ccccc2SC1 [Example 5, 3-(3-dimethylaminomethyl-2H-thiochromen-4-yl)-phenol hydrochloride]
Ki (δ-opiate receptor; [1]): 68.2 ± 10.1 nM

CN(C)CC1=C(c2cccc(O)c2)c2ccccc2OC1 [Example 7, 3-(3-dimethylaminomethyl-2H-chromen-4-yl)-phenol hydrochloride]
Ki (δ-opiate receptor; [1]): 68.4 ± 8.4 nM

CN(C)CC1=C(c2cccc(O)c2)c2cc(O)ccc2OC1(C)C [Example 8, 3-dimethylaminomethyl-4-(3-hydroxy-phenyl)-2,2-di-methyl-2H-chromen-6-ol hydrochloride]
Ki (δ-opiate receptor; [1]): 393 ± 46 nM

COc1ccc2c(c1)[S+]([O-])CCC(CN(C)C)=C2c1cccc(O)c1 (centres unmarked) [Example 9a, 3-(4-dimethylaminomethyl-8-methoxy-1-oxo-2,3-dihydro-1H-1-2-4-benzo[b]thiepin-5-yl)-phenol hydrochloride]
Ki (δ-opiate receptor; [1]): 1.75 nM

CN(C)CC1=C(c2cccc(O)c2)c2ccc(O)cc2SCC1 [Example 11b, 4-dimethylaminomethyl-5-(3-hydroxy-phenyl)-2,3-dihydro-benzo[b]thiepin-8-ol hydrochloride]
Ki (δ-opiate receptor; [1]): 6.43 nM | Ki (δ-opiate receptor; [2]): 6.71 nM

D-alanine^2 -D-leucine^5 enkeplialin [DADL]
analgesic effect (cancer patients): long-lasting analgesic effect
